According to the supplement of paper PMC10307832:

How the values were obtained:
Assay in all cases: relative viability (nuclei count vs DMSO), 5 days (fraction); higher = more cells survive
[1] = compound: CC1=CN=C(N=C1C2=CNC(=C2)C(=O)N[C@H](CO)C3=CC(=CC=C3)Cl)NC4=C(C=C(C=C4)F)Cl [VX-11e] + CS(=O)(=O)N1CCN(Cc2cc3nc(-c4cccc5[nH]ncc45)nc(N4CCOCC4)c3s2)CC1 [Pictilisib] (partner 1 µM)
Procedure, shortened: (§1)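 Lung cancer cell lines in 1536-well plates were dosed by pin tool the day after seeding, either with one drug alone or with a fixed anchor-drug dose plus five library-drug doses (not always all listed) in √10 steps. After 5 days, cells were fixed and their nuclei stained in one step (final 0.05% Triton X-100, 1% formaldehyde, 1 ug/ml Hoechst), then counted on 4× images. Relative viability is the nuclei count in treated wells divided by that in vehicle wells. Values are medians of duplicate plates.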

[2] = compound: CC1=CN=C(N=C1C2=CNC(=C2)C(=O)N[C@H](CO)C3=CC(=CC=C3)Cl)NC4=C(C=C(C=C4)F)Cl [VX-11e] + C[C@@H](Oc1cc(-c2cnn(C3CCNCC3)c2)cnc1N)c1c(Cl)ccc(F)c1Cl [Crizotinib] (partner 1 µM)
Procedure, shortened: as §1

[3] = compound: CC1=CN=C(N=C1C2=CNC(=C2)C(=O)N[C@H](CO)C3=CC(=CC=C3)Cl)NC4=C(C=C(C=C4)F)Cl [VX-11e] + Cc1nc(Nc2ncc(C(=O)Nc3c(C)cccc3Cl)s2)cc(N2CCN(CCO)CC2)n1 [Dasatinib] (partner 0.075 µM)
Procedure, shortened: as §1

[4] = compound: CC1=CN=C(N=C1C2=CNC(=C2)C(=O)N[C@H](CO)C3=CC(=CC=C3)Cl)NC4=C(C=C(C=C4)F)Cl [VX-11e] + O=C(CCCCCCC(=O)Nc1ccccc1)NO [Vorinostat] (partner 1 µM)
Procedure, shortened: as §1

Cell Line: NCI-H2087
- relative viability ([1]; first compound 0.04 µM): 0.778
- relative viability ([1]; first compound 0.1265 µM): 0.734
- relative viability ([1]; first compound 0.4 µM): 0.271
- relative viability ([1]; first compound 1.265 µM): 0.445
- relative viability ([1]; first compound 4 µM): 0.273
- relative viability ([2]; first compound 0.04 µM): 1.03
- relative viability ([2]; first compound 0.1265 µM): 0.809
- relative viability ([2]; first compound 0.4 µM): 0.944
- relative viability ([2]; first compound 1.265 µM): 1.07
- relative viability ([2]; first compound 4 µM): 0.502
- relative viability ([3]; first compound 0.04 µM): 0.943
- relative viability ([3]; first compound 0.1265 µM): 0.73
- relative viability ([3]; first compound 1.265 µM): 0.301
- relative viability ([3]; first compound 4 µM): 0.202
- relative viability ([4]; first compound 0.04 µM): 0.944
- relative viability ([4]; first compound 0.1265 µM): 0.644
- relative viability ([4]; first compound 1.265 µM): 0.495
- relative viability ([4]; first compound 4 µM): 0.239

Cell Line: NCI-H2126
- relative viability ([1]; first compound 0.1265 µM): 0.518
- relative viability ([1]; first compound 0.4 µM): 0.393
- relative viability ([1]; first compound 1.265 µM): 0.384
- relative viability ([1]; first compound 4 µM): 0.392
- relative viability ([2]; first compound 0.1265 µM): 1.03
- relative viability ([2]; first compound 0.4 µM): 0.987
- relative viability ([2]; first compound 1.265 µM): 1.02
- relative viability ([2]; first compound 4 µM): 0.901
- relative viability ([3]; first compound 0.04 µM): 0.52
- relative viability ([3]; first compound 0.1265 µM): 0.635
- relative viability ([3]; first compound 1.265 µM): 0.597
- relative viability ([3]; first compound 4 µM): 0.401
- relative viability ([4]; first compound 0.04 µM): 0.512
- relative viability ([4]; first compound 0.1265 µM): 0.686
- relative viability ([4]; first compound 0.4 µM): 0.352
- relative viability ([4]; first compound 1.265 µM): 0.474
- relative viability ([4]; first compound 4 µM): 0.52

Cell Line: NCI-H2170
- relative viability ([1]; first compound 0.04 µM): 0.244
- relative viability ([1]; first compound 0.1265 µM): 0.265
- relative viability ([1]; first compound 0.4 µM): 0.19
- relative viability ([1]; first compound 1.265 µM): 0.217
- relative viability ([1]; first compound 4 µM): 0.237
- relative viability ([2]; first compound 0.04 µM): 1.18
- relative viability ([2]; first compound 0.1265 µM): 1.04
- relative viability ([2]; first compound 0.4 µM): 1.23
- relative viability ([2]; first compound 1.265 µM): 1.03
- relative viability ([2]; first compound 4 µM): 1.1
- relative viability ([3]; first compound 0.04 µM): 0.339
- relative viability ([3]; first compound 0.1265 µM): 0.664
- relative viability ([3]; first compound 0.4 µM): 0.461
- relative viability ([3]; first compound 1.265 µM): 0.341
- relative viability ([3]; first compound 4 µM): 0.445
- relative viability ([4]; first compound 0.04 µM): 0.835
- relative viability ([4]; first compound 0.1265 µM): 0.75
- relative viability ([4]; first compound 0.4 µM): 0.462
- relative viability ([4]; first compound 1.265 µM): 0.67
- relative viability ([4]; first compound 4 µM): 0.778

Cell Line: NCI-H2228
- relative viability ([1]; first compound 0.04 µM): 0.355
- relative viability ([1]; first compound 0.1265 µM): 0.464
- relative viability ([1]; first compound 0.4 µM): 0.0994
- relative viability ([1]; first compound 1.265 µM): 0.854
- relative viability ([1]; first compound 4 µM): 0.188
- relative viability ([2]; first compound 0.04 µM): 0.533
- relative viability ([2]; first compound 0.1265 µM): 0.524
- relative viability ([2]; first compound 0.4 µM): 0.463
- relative viability ([2]; first compound 1.265 µM): 0.263
- relative viability ([2]; first compound 4 µM): 0.303
- relative viability ([3]; first compound 0.04 µM): 0.591
- relative viability ([3]; first compound 0.1265 µM): 0.578
- relative viability ([3]; first compound 1.265 µM): 0.351
- relative viability ([3]; first compound 4 µM): 0.188
- relative viability ([4]; first compound 0.04 µM): 0.646
- relative viability ([4]; first compound 0.1265 µM): 0.66
- relative viability ([4]; first compound 0.4 µM): 0.617
- relative viability ([4]; first compound 1.265 µM): 0.58
- relative viability ([4]; first compound 4 µM): 0.399

Cell Line: NCI-H2347
- relative viability ([1]; first compound 0.04 µM): 0.813
- relative viability ([1]; first compound 0.1265 µM): 0.662
- relative viability ([1]; first compound 0.4 µM): 0.491
- relative viability ([1]; first compound 1.265 µM): 0.36
- relative viability ([1]; first compound 4 µM): 0.298
- relative viability ([2]; first compound 0.04 µM): 0.677
- relative viability ([2]; first compound 0.1265 µM): 0.831
- relative viability ([2]; first compound 0.4 µM): 0.605
- relative viability ([2]; first compound 1.265 µM): 0.517
- relative viability ([2]; first compound 4 µM): 0.406
- relative viability ([3]; first compound 0.04 µM): 0.221
- relative viability ([3]; first compound 0.1265 µM): 0.314
- relative viability ([3]; first compound 0.4 µM): 0.126
- relative viability ([3]; first compound 1.265 µM): 0.232
- relative viability ([3]; first compound 4 µM): 0.197
- relative viability ([4]; first compound 0.04 µM): 0.514
- relative viability ([4]; first compound 0.1265 µM): 0.688
- relative viability ([4]; first compound 0.4 µM): 0.5
- relative viability ([4]; first compound 1.265 µM): 0.349
- relative viability ([4]; first compound 4 µM): 0.316

Cell Line: NCI-H2405
- relative viability ([1]; first compound 0.04 µM): 0.3
- relative viability ([1]; first compound 0.1265 µM): 0.388
- relative viability ([1]; first compound 1.265 µM): 0.412
- relative viability ([1]; first compound 4 µM): 0.125
- relative viability ([2]; first compound 0.04 µM): 0.892
- relative viability ([2]; first compound 0.1265 µM): 0.805
- relative viability ([2]; first compound 0.4 µM): 0.821
- relative viability ([2]; first compound 1.265 µM): 0.766
- relative viability ([2]; first compound 4 µM): 0.505
- relative viability ([3]; first compound 0.04 µM): 0.204
- relative viability ([3]; first compound 0.1265 µM): 0.186
- relative viability ([3]; first compound 0.4 µM): 0.15
- relative viability ([3]; first compound 1.265 µM): 0.151
- relative viability ([3]; first compound 4 µM): 0.128
- relative viability ([4]; first compound 0.04 µM): 0.993
- relative viability ([4]; first compound 0.1265 µM): 0.866
- relative viability ([4]; first compound 0.4 µM): 1.22
- relative viability ([4]; first compound 1.265 µM): 0.918
- relative viability ([4]; first compound 4 µM): 0.565

Cell Line: NCI-H3122
- relative viability ([1]; first compound 0.04 µM): 0.633
- relative viability ([1]; first compound 0.1265 µM): 0.57
- relative viability ([1]; first compound 0.4 µM): 0.255
- relative viability ([1]; first compound 1.265 µM): 0.406
- relative viability ([1]; first compound 4 µM): 0.212
- relative viability ([2]; first compound 0.04 µM): 0.302
- relative viability ([2]; first compound 0.1265 µM): 0.288
- relative viability ([2]; first compound 0.4 µM): 0.275
- relative viability ([2]; first compound 1.265 µM): 0.35
- relative viability ([2]; first compound 4 µM): 0.226
- relative viability ([3]; first compound 0.04 µM): 0.7
- relative viability ([3]; first compound 0.1265 µM): 0.637
- relative viability ([3]; first compound 1.265 µM): 0.476
- relative viability ([3]; first compound 4 µM): 0.224
- relative viability ([4]; first compound 0.04 µM): 0.85
- relative viability ([4]; first compound 0.1265 µM): 0.885
- relative viability ([4]; first compound 0.4 µM): 0.684
- relative viability ([4]; first compound 1.265 µM): 0.987
- relative viability ([4]; first compound 4 µM): 0.589

Cell Line: PC-3 [JPC-3]
- relative viability ([1]; first compound 0.04 µM): 0.608
- relative viability ([1]; first compound 0.1265 µM): 0.684
- relative viability ([1]; first compound 0.4 µM): 0.703
- relative viability ([1]; first compound 1.265 µM): 0.644
- relative viability ([1]; first compound 4 µM): 0.635
- relative viability ([2]; first compound 0.04 µM): 0.993
- relative viability ([2]; first compound 0.1265 µM): 0.963
- relative viability ([2]; first compound 0.4 µM): 0.93
- relative viability ([2]; first compound 1.265 µM): 1.07
- relative viability ([2]; first compound 4 µM): 0.845
- relative viability ([3]; first compound 0.04 µM): 0.904
- relative viability ([3]; first compound 0.1265 µM): 0.903
- relative viability ([3]; first compound 0.4 µM): 0.886
- relative viability ([3]; first compound 1.265 µM): 1.16
- relative viability ([3]; first compound 4 µM): 0.883
- relative viability ([4]; first compound 0.04 µM): 0.752
- relative viability ([4]; first compound 0.1265 µM): 0.708
- relative viability ([4]; first compound 0.4 µM): 1.01
- relative viability ([4]; first compound 1.265 µM): 0.646
- relative viability ([4]; first compound 4 µM): 0.755
